Data taken from patent US10391110B2, “Composition for preventing or treating vascular leak syndrome” (INTELLIGENT SYNTHETIC BIOLOGY CENTER, priority 2015, dated 2019).

Columns and labels:
[1] = system: human umbilical vascular endothelial cells (HUVECs); experiment: tube formation assay in HUVECs; type: cell-based; details: 25 μM ginsenoside, 4 hours, vs DMSO negative control and VEGF-A positive control
Description: (§1) The angiogenesis-promoting activities between human umbilical vascular endothelial cells (HUVECs) and human retinal microvascular endothelial cells (HRMECs) using 10 kinds of ginsenoside compounds (CK, Rh2, Rg3, Rb1, F2, Rd, Re, Rg1, Rh1, or F1). That is, HUVECs or HRMECs were cultured in an incubator (5% CO2 and 37° C.) using 2% FBS, EGM-2 (Lonza, Walkersville, Md., USA) medium. A 96-well plate was coated with Matrigel (BD Biosciences) for 1 hour. Then, HUVECs or HRMECs (10^4 cells/well, respectively), which were mixed with a 0.1% FBS-containing EBM-2 medium respectively treated with 25 μM of ginsenoside compounds (CK, Rh2, Rg3, Rb1, F2, Rd, Re, Rg1, Rh1, or F1), were seeded on the 96-well plate. After 4 hours of incubation, a tube formation assay was performed and the number of tubes formed was compared by microscopic observation and photographing (FIGS. 1a, 1b, 2a, and 2b). In particular, the cells cultured after treating with DMSO instead of ginsenoside were used as a negative control, and the cells cultured after treating with VEGF-A, which is known to promote angiogenesis, were used as a positive control.
(§2) The HUVECs or HRMECs, which were cultured by the method of Example 1, were cultured after treating at various concentrations (12.5, 25, or 50 μM) of ginsenoside F1 or Rh1 selected from Example 1 for 4 hours, and the number of tubes formed was compared by performing a tube formation assay (FIGS. 3 and 4). In particular, the cells cultured after treating with DMSO instead of ginsenoside were used as a negative control and the cells cultured after treating with VEGF-A, which is known to promote angiogenesis, were used as a positive control.

[2] = system: human retinal microvascular endothelial cells (HRMECs); experiment: tube formation assay in HRMECs; type: cell-based; details: 25 μM ginsenoside, 4 hours, vs DMSO negative control and VEGF-A positive control
Description: as §1, §2

HUVECs [3] = experiment: MTT cell proliferation assay in HUVECs; type: cell-based, human; details: 48 hours, concentrations 0, 3.125, 6.25, 12.5, or 25 μM
Description: The HUVECs or HRMECs, which were cultured by the method of Example 1, were cultured after treating at various concentrations (0, 3.125, 6.25, 12.5, or 25 μM) of three kinds of ginsenosides (F1, Rh1, or Rg1), which were confirmed to promote tube formation in Example 1, for 48 hours, and the level of cell proliferation was compared by performing the MTT assay with respect to the cultured cells (FIGS. 5 and 6). In particular, the cells cultured after treating with DMSO instead of ginsenoside were used as a negative control, and the cells cultured after treating with VEGF-A, which is known to promote angiogenesis, were used as a positive control.

HUVECs [4] = experiment: vascular permeability assay, VEGF-A-treated HUVECs; type: cell-based, human; details: for vascular leakage induced by VEGF-A: HUVECs pretreated with 25 μM ginsenoside for 1 hour, then VEGF-A; for level of vascular leakage, pretreatment plus VEGF-A compared to ginsenoside alone: HUVECs, 25 μM ginsenoside pretreatment 1 hour then VEGF-A vs ginsenoside alone
Description: The HUVECs, cultured by a method described in Example 1, were pretreated with 25 μM ginsenoside F1 or Rh1 for 1 hour selected from Example 1, treated with VEGF-A, and then subjected to a vascular permeability assay (FIG. 9). In particular, the cells cultured after treating with DMSO instead of ginsenoside were used as a negative control; the cells cultured after treating with VEGF-A, which is known to promote angiogenesis, were used as a positive control; and the cells pretreated with ginsenoside F1 or Rh1 and not treated with VEGF-A were used as a comparative group.

ICR mice = experiment: VEGF-A-induced vascular leakage in mouse ears (Evans blue); type: in vivo; details: ear intradermal 10 μL, ginsenoside 1.25 μM with VEGF-A 250 μg, 30 minutes
Description: Seven-week-old male ICR mice were injected with 1% Evans blue dye (200 μL) into the tail vein and allowed to react for 10 minutes to dye the blood in blue.
Then, the mice were intradermally injected in an amount of 10 μL through the ears with PBS (negative control), VEGF-A (250 μg, positive control), ginsenoside F1 (1.25 μM), ginsenoside Rh1 (1.25 μM), VEGF-A (250 μg)/ginsenoside F1 (1.25 μM), or VEGF-A (250 μg)/ginsenoside Rh1 (1.25 μM), respectively.
Thirty minutes thereafter, the mice were subjected to euthanasia and their ears were removed. After confirming the amount of blood leakage by the naked eye (FIG. 10A), the ears were put in formamide and fixed at 37° C. for 24 hours. Then, the effects of F1 or Rh1 on the inhibition of blood leakage were quantitatively evaluated by measuring the absorbance at 620 nm (FIG. 10B).

Molecule | number of tubes formed (tube formation) [1] | number of tubes formed (tube formation) [2] | promotion of cell proliferation (HUVECs [3]) | vascular leakage induced by VEGF-A (HUVECs [4]) | level of vascular leakage, pretreatment plus VEGF-A compared to ginsenoside alone (HUVECs [4]) | vascular leakage symptoms induced by VEGF-A (Evans blue, absorbance at 620 nm) (ICR mice)
CC(C)=CCC[C@](C)(O[C@@H]1O[C@H](CO)[C@@H](O)[C@H](O)[C@H]1O)[C@H]1CC[C@]2(C)[C@@H]1[C@H](O)C[C@@H]1[C@@]3(C)CC[C@H](O[C@@H]4O[C@H](CO)[C@@H](O)[C@H](O)[C@H]4O[C@@H]4O[C@H](CO)[C@@H](O)[C@H](O)[C@H]4O)C(C)(C)[C@@H]3CC[C@]12C [ginsenoside Rd] | effect of promoting tube formation | effect of promoting tube formation |  |  |  | 
ginsenoside Rb2 | effect of inhibiting tube formation | effect of inhibiting tube formation |  |  |  | 
CC(C)=CCC[C@](C)(O[C@@H]1O[C@H](CO)[C@@H](O)[C@H](O)[C@H]1O)[C@H]1CC[C@]2(C)[C@@H]1[C@H](O)C[C@@H]1[C@@]3(C)CC[C@H](O[C@@H]4O[C@H](CO)[C@@H](O)[C@H](O)[C@H]4O)C(C)(C)[C@@H]3CC[C@]12C [ginsenoside F2] | did not show any noticeable difference | effect of promoting tube formation |  |  |  | 
CC(C)=CCCC(C)(OC1OC(CO)C(O)C(O)C1O)C1CCC2(C)C1C(O)CC1C3(C)CCC(O)C(C)(C)C3C(O)CC12C [ginsenoside F1, 20-O-β-D-glucopyranosyl-20(S)-protopanaxatriol] | effect of promoting tube formation at a higher level compared to that of the positive control | effect of promoting tube formation at a higher level compared to that of the positive control | about 20% | vascular leakage was inhibited by the pretreatment | further reduced compared to when the HUVECs were treated with ginsenoside F1 or Rh1 alone | effectively inhibit the vascular leakage symptoms induced by VEGF-A
CC(C)=CCCC(C)(O)C1CCC2(C)C1C(O)CC1C3(C)CCC(O)C(C)(C)C3C(OC3OC(CO)C(O)C(O)C3O)CC12C [ginsenoside Rh1, 6-O-β-D-glucopyranoside-20(S)-protopanaxatriol] | effect of promoting tube formation at a higher level compared to that of the positive control | effect of promoting tube formation at a higher level compared to that of the positive control | about 100% | vascular leakage was inhibited by the pretreatment | further reduced compared to when the HUVECs were treated with ginsenoside F1 or Rh1 alone | effectively inhibit the vascular leakage symptoms induced by VEGF-A
CC(C)=CCC[C@](C)(O[C@@H]1O[C@H](CO[C@@H]2O[C@H](CO)[C@@H](O)[C@H](O)[C@H]2O)[C@@H](O)[C@H](O)[C@H]1O)[C@H]1CC[C@]2(C)[C@@H]1[C@H](O)C[C@@H]1[C@@]3(C)CC[C@H](O[C@@H]4O[C@H](CO)[C@@H](O)[C@H](O)[C@H]4O[C@@H]4O[C@H](CO)[C@@H](O)[C@H](O)[C@H]4O)C(C)(C)[C@@H]3CC[C@]12C [ginsenoside Rb1] | did not show any noticeable difference | effect of promoting tube formation |  |  |  | 
CC(C)=CCC[C@](C)(O[C@@H]1O[C@H](CO)[C@@H](O)[C@H](O)[C@H]1O)[C@H]1CC[C@]2(C)[C@@H]1[C@H](O)C[C@@H]1[C@@]3(C)CC[C@H](O)C(C)(C)[C@@H]3[C@@H](O[C@@H]3O[C@H](CO)[C@@H](O)[C@H](O)[C@H]3O)C[C@]12C [ginsenoside Rg1] | effect of promoting tube formation | effect of promoting tube formation | about 60% |  |  | 
CC(C)=CCC[C@](C)(O[C@@H]1O[C@H](CO)[C@@H](O)[C@H](O)[C@H]1O)[C@H]1CC[C@]2(C)[C@@H]1[C@H](O)C[C@@H]1[C@@]3(C)CC[C@H](O)C(C)(C)[C@@H]3CC[C@]12C [ginsenoside CK] | effect of inhibiting tube formation | effect of inhibiting tube formation |  |  |  | 
CC(C)=CCC[C@](C)(O[C@@H]1O[C@H](CO)[C@@H](O)[C@H](O)[C@H]1O)[C@H]1CC[C@]2(C)[C@@H]1[C@H](O)C[C@@H]1[C@@]3(C)CC[C@H](O)C(C)(C)[C@@H]3[C@@H](O[C@@H]3O[C@H](CO)[C@@H](O)[C@H](O)[C@H]3O[C@@H]3O[C@@H](C)[C@H](O)[C@@H](O)[C@H]3O)C[C@]12C [ginsenoside Re] | effect of promoting tube formation | effect of promoting tube formation |  |  |  | 
CC(C)=CCC[C@](C)(O)[C@H]1CC[C@]2(C)[C@@H]1[C@H](O)C[C@@H]1[C@@]3(C)CC[C@H](O[C@@H]4O[C@H](CO)[C@@H](O)[C@H](O)[C@H]4O[C@@H]4O[C@H](CO)[C@@H](O)[C@H](O)[C@H]4O)C(C)(C)[C@@H]3CC[C@]12C [ginsenoside Rg3] | effect of inhibiting tube formation | effect of inhibiting tube formation |  |  |  | 
